Assay results: PMC8875489, “Pharmaceutical and Safety Profile Evaluation of Novel Selenocompounds with Noteworthy Anticancer Activity” (Pharmaceutics, 2022)
“Also recorded” adds a separate entry of the source.

Experiments:
[1] = tested on: human liver microsomes (HLMs); assay: In vitro microsomal biotransformation test with TRIS buffer and solvent controls (LC-MS/MS); assay type: in vitro ADME; conditions: for stability in DMSO: organic solvent, LC-MS/MS
Procedure: The assessment of the metabolites generated in the in vitro microsomal biotransformation of the selenoester EDA-71 in liver microsomes was performed following a previously described protocol with minor modifications. Only this compound was evaluated because it combined an optimal solubility to be analyzed in this procedure with very significant activity. The protocol is provided in full detail in the Supplementary Materials. Briefly, the compound was exposed to microsomes for 2 h, and the mixture was later analyzed with LC–MS/MS to detect the generated metabolites.
In the next step of the research, a biochemical in vitro method with the use of human liver microsomes (HLMs) was applied to determine the metabolic activity of the compound EDA-71. This human liver microsomal model provides all the enzymes required for the phase I metabolism reactions (hydrolysis, oxidation, and reduction). Moreover, it is also possible, in certain conditions following the addition of all necessary cofactors, to conduct metabolism II phase reactions (glutathione transferase and N-acetyltransferase enzymatic reactions). In the drug discovery process, the microsomal is a standard in vitro method for the metabolism evaluation. Additionally, this assay can predict the biotransformation kinetics and intrinsic clearance of new derivatives. Finally, these biotransformation processes can be easily monitored with LC–MS/MS.
The NADPH-regenerating system, which contained a phosphate buffer (pH = 7.4; NADP^+, glucose-6-phosphate, and glucose-6-phosphate dehydrogenase), was used. The biotransformation process was monitored with the LC–MS/MS method at the end of the procedure at 2 h after the incubation.
This experimental fact prevented the detailed analysis of metabolic stability. […] Thus, the tested compounds were dissolved in DMSO immediately before the experiment to minimize the degradation risk. […]
1.4. In vitro metabolic stability evaluation in microsomes
1.4.1. Microsomal metabolic stability protocol
For the microsomal stability assay, the selenoester EDA-71 was selected. Before the experimental procedure, the HLMs and solutions necessary for preparing the regenera-tion fraction were stored at -80° C and TRIS buffer at 4° C. The NADP+ regeneration frac-tion was prepared freshly, at the day of the experiment.
1.4.2. Preparation of the working solutions and microsomal regeneration fraction In the first step of the experiment, after selection of the compounds, the 1000 μM working solution was prepared in the TRIS buffer (0.1 M, pH 7.5) from the 10 mM stocks in DMSO. Then, the fresh regeneration fraction was prepared from the 220 μL TRIS buffer, 25 μL of the “A” solution and 5 μL of the “B” solution.
1.4.3. Human liver microsomes and solvent controls
Further, two controls have been prepared: solvent control (142 μL of TRIS buffer with 8 μL of HLMs, 50 μL of the regeneration fraction and 200 μL of the pure methanol) and tested compound control (190 μL of TRIS buffer with 10 μL of the 1 mM tested compound solution and 200 μL of methanol). The biotransformation was carried out at the precise concentration of 1 mg/mL of HLMs.
1.4.4. Biotransformation performance
In the next step 132 μL of TRIS buffer were added into a sterile eppendorf. After that, 10 μL of 1000 μM solution of tested compound in TRIS buffer were added to the above-mentioned eppendorf and then, 8 μL of HLMs. The final concentration of tested com-pound was 50 μM. After gently mixing on the vortex, reaction mixture was preincubated for 5 minutes at 37° C on the thermoblock. Then, in the further step, the reaction was ini-tiated by adding 50 μL of the NADP+ regeneration fraction and incubated at 37° C for 2 h.
After that time, to terminate the reaction, the 200 μL of pure, cold methanol (for LC-MS/MS analysis) was added to probe, which contained the tested compound with HLMs.
Moreover, the same amount of cold methanol was added into the control sample with […]

[2] = tested on: Salmonella Typhimurium TA100 strain; assay: Reference experiment: impact on Salmonella Typhimurium growth (OD600); assay type: cell-based, Salmonella enterica serovar Typhimurium; conditions: 1 and 10 µM, 20 h, 37 °C
Procedure: Therefore, a reference experiment with 20 h of incubation at constant temperature conditions (37 °C) was performed in order to determine the effect of the tested compounds on the growth of the Salmonella Typhimurium used in the Ames test. […] Therefore, this method could be successfully applied to determine the safety profile of the tested derivatives.
it indicated the occurrence of cytotoxic events.
Salmonella Typhimurium growth
microplate assay. During the experiment, Salmonella Typhimurium TA100 strain was cul-
At the day of the experiment,
tions of 25 μM and 250 μM) respectively. The final compound and mutagenic agent con-
References in Supplementary (same numeration than in manuscript)
Appl Biochem Biotechnol, 2018, 184(1), 124-139.
Karczewska, E.; Kieć-Kononowicz, K.; Handzlik, J.; Jacob, C. Pronounced activity of aromatic selenocyanates against multidrug
Chem Biol Drug Res, 2017, 90(6), 1295-1306.
Drug Des Devel Ther, 2016,
icity of Environmental Samples. Environ Mol Mutagen, 2010, 51(1), 31-38.
stranded DNA is characterized by guanine to pyrimidine transversions. Nucleic Acids Res, 1992, 20(6), 1283-1287.

| Structure (SMILES) | stability in TRIS buffer and LC-MS/MS analysis conditions ([1]; TRIS buffer pH = 7.4, control of microsomal assay) | stability in DMSO [1] | effect on the growth of Salmonella Typhimurium [2] |
| --- | --- | --- | --- |
| CC(=O)C[Se]C(=O)c1ccc(Cl)cc1 [EDA-71, Se-(2-oxopropyl) 4-chlorobenzoselenoate] | may not be stable; also recorded: unstable | stable | – |
| C[Se]C(=O)c1cccc(C(=O)[Se]C)n1 [EDA-119, Se,Se-dimethyl pyridine-2,6-bis(carboselenoate)] | – | stable | – |
| C[Se]C(=O)c1ccc(C(=O)[Se]C)s1 [EDA-122, Se,Se-dimethyl thiophene-2,5-bis(carboselenoate)] | – | stable | – |
| C[Se]C(=O)c1ccc(C(=O)[Se]C)cc1 [EDA-109, Se,Se-dimethyl benzene-1,4-bis(carboselenoate)] | – | – | stimulating effect on the growth |
| COC(=O)C[Se]C(=O)c1cc(OC)cc(OC)c1 [EDA-58, methyl 2-((3,5-dimethoxybenzoyl)selanyl)acetate] | – | stable | – |
| O=C1[Se]C(=O)c2ccccc21 [EDA-A6, benzo[c]selenophene-1,3-dione] | – | stable | – |
